Experimental findings from patent publication US20250002464A1, “NOVEL COMPOUND AND PHARMACEUTICAL COMPOSITION COMPRISING SAME” (SAPIENSBIO INC., priority 2021, published 2025) are described below.

For assay [1], the system named is COL1A1. The experiment in a line: COL1A1 protein level by Western blotting in TGF-β1-treated fibroblasts. It counts as cell-based. To be noted: MRC5 cells, 5, 10, or 20 μM, TGF-β1 (10 ng/mL), 70 hours. The source says:
(§1) α-SMA protein is a marker of activated myofibroblasts, which are the main effector cells of fibrosis, myofibroblasts with increased α-SMA expression are known to produce a fibrotic protein such as collagen type 1 and cause fibrosis. Therefore, in this example, it was confirmed whether the compound according to the present invention is effective in inhibiting fibrosis by reducing the expression of α-SMA and other pro-fibrotic factors (COL1A1, COL4A1, fibronectin, and p-SMAD2).
(§2) Specifically, lung tissue-derived fibroblasts, MRC5 cells, were treated with Compound 59 according to the present invention (5, 10, or 20 μM), nintedanib (1 μM), or DMSO, and then 2 hours later, treated with TGF-β1 (10 ng/mL). After 70 hours, the cells were lysed in RIPA buffer (50 mM Tris-HCl, 150 mM NaCl, 1% NP-40, 0.5% sodium deoxycholate, 0.1% SDS, protease inhibitor & phosphatase inhibitor cocktail, pH 8.0), which had been cooled to 4° C. The cell lysate was centrifuged at 4° C. at a speed of 15,000×g for 30 minutes, and then the supernatant was collected. After matching the total amount of proteins in the supernatant of each sample (15 to 30 μg), the proteins were separated according to molecular weight using SDS polyacrylamide gel electrophoresis (SDS-PAGE). […]

For assay [2], the system named is fibronectin. The assay can be described thus: fibronectin protein level by Western blotting in TGF-β1-treated fibroblasts. It counts as cell-based. To be noted: MRC5 cells, 5, 10, or 20 μM, TGF-β1 (10 ng/mL), 70 hours.
From the text: as §1, §2

The test system of assay [3] is MCR5 cell line. The assay can be described thus: intracellular F-actin polymerization, TGF-β1-treated cells, confocal microscope. It counts as cell-based. To be noted: 10 μM along with TGF-β1 (10 ng/mL), 48 hours (FIGS. 2A and 2B). The text has this: F-actin polymerization activates transcription factors involved in the activation of myofibroblasts and the initiation of fibrosis. Accordingly, when F-actin polymerization decreases, the expression of fibrosis-causing genes by the transcription factors may be inhibited, and the activation and fibrosis of muscle fiber cells may be reduced. Therefore, in this example, it was confirmed whether the compounds according to the present invention are effective in inhibiting F-actin polymerization.
An MCR5 cell line was dispensed at 1×10^3 cells/well in a 96-well black micro plate and cultured in Medium 1 (10% FBS-containing MEM) in 5% CO2 at 37° C. for 24 hours. Subsequently, the above medium was exchanged with Medium 2 (0.5% FBS-containing MEM), a compound of the present invention was treated at 10 μM along with TGF-β1 (10 ng/mL), and the cells were incubated for 48 hours. After removing the entire batch, the cells were treated with each of CellMask Orange Actin Tracking Stain (Invitrogen) and NucBlue Live ReadyProbes (Invitrogen) to performing F-actin and cell nucleus staining in accordance with the manufacturer's recommended conditions. Cells treated with the staining reagents were incubated for 30 minutes at 5% CO2 and 37° C. while blocking light. After completing the incubation, the staining reagents were removed, fresh Medium 1 was added to the cells at 100 μL/well, and then the cells were incubated for 5 minutes, followed by removal of the medium. The above process was repeated three times. To observe the stained F-actin and cell nucleus, PBS was added to the plate at 100 μL/well, and then the cells were photographed using a confocal microscope (Leica) and analyzed using Image J software.

Assay [4] has as its system α-SMA. The experiment in a line: α-SMA protein level by Western blotting in TGF-β1-treated fibroblasts. In kind it is cell-based. To be noted: MRC5 cells, 5, 10, or 20 μM, TGF-β1 (10 ng/mL), 70 hours.
From the text: as §1, §2

Assay [5] concerns Arp2/3 complex. The assay can be described thus: in vitro actin polymerization test (pyrene-labeled actin). It counts as biochemical. To be noted: 10 μM, VCA domain protein, spherical actin monomers, 1 hour, compared to control (FIG. 1). On the procedure: Although actin polymerization, which is a process of forming actin filaments from actin monomers, is involved in controlling cell movement, tissue fibrosis may be caused by the promotion of excessive α-SMA expression and induction of myofibroblast activation. Accordingly, an in vitro actin polymerization test was performed to confirm the actin polymerization controlling function of the compounds according to the present invention.
Specifically, a pyrene-labeled spherical actin stock was diluted with general actin buffer (5 mM Tris-HCl pH 8.0, 0.2 mM CaCl2)) and incubated at 4° C. for 1 hour, thereby producing spherical actin monomers. Afterward, 80% of a supernatant was recovered by centrifugation at 20,000×g and 4° C. for 3 hours, and 0.1 mg/mL spherical actin monomers were prepared. The Arp2/3 complex, the VCA domain protein, and Compound 12, 38, or 59 (10 μM each) according to the present invention were added to the spherical actin monomers and an actin polymerization buffer and reacted at room temperature for 1 hour. The increased fluorescence intensity during the reaction from the spherical actin monomer to a fibrous actin polymer was measured using a microplate reader at an excitation wavelength of 360 nm and an emission wavelength of 407 nm. The degree of actin polymerization was shown relative to the maximum polymerization rate (arbitrary units).

The test system of assay [6] is COL4A1. The experiment in a line: COL4A1 protein level by Western blotting in TGF-β1-treated fibroblasts. In kind it is cell-based. The settings on record: MRC5 cells, 5, 10, or 20 μM, TGF-β1 (10 ng/mL), 70 hours.
From the text: as §1, §2

In assay [7] the test system is p-SMAD2. The assay can be described thus: phosphorylation of SMAD2 by Western blotting in TGF-β1-treated fibroblasts. It counts as cell-based. To be noted: TGF-β1 (10 ng/mL), 70 hours.
From the text: as §1, §2

The test system of assay [8] is α-SMA. The assay can be described thus: α-SMA expression inhibitory ability in MRC5 cell line (Western blotting). In kind it is cell-based. The settings on record: TGF-β1 (10 ng/mL), 72 hours, relative to TGF-β1 only. In a few lines:
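MRC5 cells given compound at 10 μM, then TGF-β1 (10 ng/mL) 2 h later; after 72 h, lysates probed for α-SMA by Western blot. Inhibition is α-SMA level relative to TGF-β1 alone, binned A ≥70%, B 50–<70%, C <50%.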

A value given as a limit tells only on which side of the number the result lay.

As for `CC(C(=O)N1CCN(c2ccccc2)c2ccccc21)N1CCCC[C@H]1C` (stereo partly drawn) [Compound 59, 2-((R)-2-methylpiperidin-1-yl)-1-(4-phenyl-3,4-dihydroquinoxaline-1(2H)-yl)propan-1-one phosphate], the COL1A1 protein level result in assay [1] is “greatly decreased”. Moreover, in assay [2], the fibronectin protein level entry was “greatly decreased”. In assay [3], the “intracellular F-actin polymerization” value is recorded as “significantly reduced”. Besides, in assay [4], the α-SMA protein level entry was “significantly decreased”. In addition, the “actin polymerization activity (maximum polymerization rate)” value in assay [5] is recorded as “decreased compared to the control”. For the same molecule, the COL4A1 protein level result in assay [6] is “greatly decreased”. In assay [7] (MRC5 cells, 5, 10, or 20 μM), the “phosphorylation of SMAD2 protein” value was “decreased in a concentration-dependent manner”. Further, the “phosphorylation of SMAD2 protein compared to nintedanib” value in assay [7] (MRC5 cells, compared to nintedanib (1 μM)) is “reduced to a greater extent”. In assay [8], this molecule returned an inhibition at 10 µM below 50%.
